From doi:10.1101/2023.11.24.568596v1 (biorxiv, 2023)

Tests used:
Details in all cases: binder
MST3 = MST3 (Homo sapiens, UniProt Q9Y6E0)
CaMK1d = CaMK1d (Homo sapiens, UniProt Q8IU85)
OSR1 = OSR1 (Homo sapiens, UniProt O95747)
CaMK4 = biological target: T1, CaMK4 (Homo sapiens, UniProt Q16566)
T1 sequence (Q16566 1-473): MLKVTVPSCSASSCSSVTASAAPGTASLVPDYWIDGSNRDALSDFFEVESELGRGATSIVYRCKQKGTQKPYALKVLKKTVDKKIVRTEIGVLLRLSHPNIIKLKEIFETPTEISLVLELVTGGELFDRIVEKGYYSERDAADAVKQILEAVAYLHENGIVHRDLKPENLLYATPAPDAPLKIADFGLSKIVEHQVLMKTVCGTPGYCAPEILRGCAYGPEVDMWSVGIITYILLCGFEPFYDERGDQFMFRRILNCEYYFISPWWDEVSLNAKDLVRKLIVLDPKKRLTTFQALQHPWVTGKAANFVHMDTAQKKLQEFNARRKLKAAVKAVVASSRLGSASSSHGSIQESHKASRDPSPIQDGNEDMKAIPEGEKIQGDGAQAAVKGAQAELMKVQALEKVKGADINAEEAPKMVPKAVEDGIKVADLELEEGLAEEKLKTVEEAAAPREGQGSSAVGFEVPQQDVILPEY

EphA2 = EphA2 (Homo sapiens, UniProt P29317)
Sequence of EphA2 (P29317 whole entry): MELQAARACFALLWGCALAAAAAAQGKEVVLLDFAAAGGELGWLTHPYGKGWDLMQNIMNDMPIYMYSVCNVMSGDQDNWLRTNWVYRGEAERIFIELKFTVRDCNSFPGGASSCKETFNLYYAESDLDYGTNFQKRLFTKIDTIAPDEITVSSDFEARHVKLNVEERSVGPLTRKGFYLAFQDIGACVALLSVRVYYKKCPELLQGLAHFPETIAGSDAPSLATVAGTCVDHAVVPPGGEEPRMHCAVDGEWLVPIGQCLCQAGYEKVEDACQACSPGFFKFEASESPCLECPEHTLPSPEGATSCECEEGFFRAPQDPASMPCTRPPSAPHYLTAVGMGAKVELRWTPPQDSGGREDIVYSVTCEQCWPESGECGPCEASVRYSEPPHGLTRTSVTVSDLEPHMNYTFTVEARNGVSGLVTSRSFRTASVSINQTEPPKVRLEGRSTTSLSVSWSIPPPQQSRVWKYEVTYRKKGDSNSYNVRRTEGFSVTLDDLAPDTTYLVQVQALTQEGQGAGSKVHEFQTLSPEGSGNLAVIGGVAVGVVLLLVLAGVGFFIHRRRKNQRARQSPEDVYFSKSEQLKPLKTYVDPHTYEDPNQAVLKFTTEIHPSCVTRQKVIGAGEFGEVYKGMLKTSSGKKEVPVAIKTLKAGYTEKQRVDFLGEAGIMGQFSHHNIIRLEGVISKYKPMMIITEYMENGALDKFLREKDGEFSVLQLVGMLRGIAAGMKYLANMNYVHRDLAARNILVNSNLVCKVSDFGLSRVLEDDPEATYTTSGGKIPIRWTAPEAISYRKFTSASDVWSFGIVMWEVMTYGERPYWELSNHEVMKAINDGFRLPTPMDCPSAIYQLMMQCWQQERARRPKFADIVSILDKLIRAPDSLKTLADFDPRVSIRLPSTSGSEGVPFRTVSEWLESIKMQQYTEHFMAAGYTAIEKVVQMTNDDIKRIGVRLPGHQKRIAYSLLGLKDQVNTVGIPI

CHK2 = CHK2 (Homo sapiens, UniProt O96017)
Sequence of CHK2 (O96017 whole entry): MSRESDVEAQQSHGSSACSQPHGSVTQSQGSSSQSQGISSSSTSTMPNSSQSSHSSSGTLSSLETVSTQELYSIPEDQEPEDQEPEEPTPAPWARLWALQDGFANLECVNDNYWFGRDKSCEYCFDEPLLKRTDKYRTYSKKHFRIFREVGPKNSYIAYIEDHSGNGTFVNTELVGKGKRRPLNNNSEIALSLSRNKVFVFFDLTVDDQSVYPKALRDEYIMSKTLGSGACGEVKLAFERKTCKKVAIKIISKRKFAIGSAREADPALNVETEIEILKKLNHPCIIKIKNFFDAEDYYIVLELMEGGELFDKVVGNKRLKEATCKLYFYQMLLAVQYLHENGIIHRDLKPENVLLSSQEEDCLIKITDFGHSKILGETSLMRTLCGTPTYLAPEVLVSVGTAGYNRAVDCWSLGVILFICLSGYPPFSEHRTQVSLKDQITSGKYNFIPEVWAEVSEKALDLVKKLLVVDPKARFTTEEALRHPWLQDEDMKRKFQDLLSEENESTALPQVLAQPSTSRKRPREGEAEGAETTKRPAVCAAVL

ABL1 = ABL1 (Homo sapiens, UniProt P00519)
Sequence of ABL1 (P00519 whole entry): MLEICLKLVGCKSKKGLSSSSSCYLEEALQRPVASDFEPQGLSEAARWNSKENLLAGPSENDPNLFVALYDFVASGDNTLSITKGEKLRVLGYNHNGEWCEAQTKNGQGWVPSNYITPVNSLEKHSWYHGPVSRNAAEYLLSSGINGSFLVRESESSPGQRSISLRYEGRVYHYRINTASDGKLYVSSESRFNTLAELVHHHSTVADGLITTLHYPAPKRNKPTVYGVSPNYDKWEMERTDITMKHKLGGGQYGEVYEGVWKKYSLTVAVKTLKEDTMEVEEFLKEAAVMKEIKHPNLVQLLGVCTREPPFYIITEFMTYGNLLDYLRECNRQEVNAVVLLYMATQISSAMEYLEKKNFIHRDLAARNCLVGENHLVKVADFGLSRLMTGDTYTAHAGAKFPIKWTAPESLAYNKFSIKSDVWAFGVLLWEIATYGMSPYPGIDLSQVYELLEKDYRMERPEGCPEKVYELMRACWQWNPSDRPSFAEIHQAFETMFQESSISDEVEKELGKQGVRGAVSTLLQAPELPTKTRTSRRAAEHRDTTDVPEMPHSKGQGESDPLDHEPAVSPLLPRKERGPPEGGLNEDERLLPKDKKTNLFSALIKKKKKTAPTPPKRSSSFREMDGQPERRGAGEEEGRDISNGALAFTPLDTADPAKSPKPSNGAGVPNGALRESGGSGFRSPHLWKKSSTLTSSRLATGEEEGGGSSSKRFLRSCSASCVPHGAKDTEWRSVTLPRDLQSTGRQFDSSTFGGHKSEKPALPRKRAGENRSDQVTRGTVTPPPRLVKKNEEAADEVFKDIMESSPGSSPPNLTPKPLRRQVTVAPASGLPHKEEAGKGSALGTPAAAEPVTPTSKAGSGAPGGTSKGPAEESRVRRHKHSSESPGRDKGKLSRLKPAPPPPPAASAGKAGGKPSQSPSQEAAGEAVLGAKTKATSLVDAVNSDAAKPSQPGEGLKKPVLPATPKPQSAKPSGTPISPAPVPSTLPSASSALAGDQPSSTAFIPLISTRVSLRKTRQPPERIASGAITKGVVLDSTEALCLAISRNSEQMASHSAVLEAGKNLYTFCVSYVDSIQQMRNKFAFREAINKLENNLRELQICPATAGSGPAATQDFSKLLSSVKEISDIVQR

BMX = biological target: T2, BMX (Homo sapiens, UniProt P51813)
T2 sequence (P51813 1-675): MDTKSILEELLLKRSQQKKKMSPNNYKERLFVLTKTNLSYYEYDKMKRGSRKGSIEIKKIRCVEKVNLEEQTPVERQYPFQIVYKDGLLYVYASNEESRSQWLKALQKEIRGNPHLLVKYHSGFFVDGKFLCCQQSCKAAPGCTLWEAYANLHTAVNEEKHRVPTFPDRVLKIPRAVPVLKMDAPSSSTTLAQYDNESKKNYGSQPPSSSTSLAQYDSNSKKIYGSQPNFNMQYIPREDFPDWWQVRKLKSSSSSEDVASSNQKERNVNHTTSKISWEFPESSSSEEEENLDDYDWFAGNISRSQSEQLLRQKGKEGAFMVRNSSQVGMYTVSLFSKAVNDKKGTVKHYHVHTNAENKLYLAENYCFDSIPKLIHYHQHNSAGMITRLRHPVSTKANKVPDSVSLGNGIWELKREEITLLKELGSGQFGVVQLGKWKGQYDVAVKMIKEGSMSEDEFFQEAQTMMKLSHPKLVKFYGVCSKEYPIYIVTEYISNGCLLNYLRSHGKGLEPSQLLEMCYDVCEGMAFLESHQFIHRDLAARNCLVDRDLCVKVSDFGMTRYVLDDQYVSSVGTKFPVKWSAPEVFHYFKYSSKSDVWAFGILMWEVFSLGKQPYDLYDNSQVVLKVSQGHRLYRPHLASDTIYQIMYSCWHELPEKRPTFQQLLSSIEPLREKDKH

AurA = biological target: T3, AurA (Homo sapiens, UniProt O14965)
T3 sequence (O14965 1-403): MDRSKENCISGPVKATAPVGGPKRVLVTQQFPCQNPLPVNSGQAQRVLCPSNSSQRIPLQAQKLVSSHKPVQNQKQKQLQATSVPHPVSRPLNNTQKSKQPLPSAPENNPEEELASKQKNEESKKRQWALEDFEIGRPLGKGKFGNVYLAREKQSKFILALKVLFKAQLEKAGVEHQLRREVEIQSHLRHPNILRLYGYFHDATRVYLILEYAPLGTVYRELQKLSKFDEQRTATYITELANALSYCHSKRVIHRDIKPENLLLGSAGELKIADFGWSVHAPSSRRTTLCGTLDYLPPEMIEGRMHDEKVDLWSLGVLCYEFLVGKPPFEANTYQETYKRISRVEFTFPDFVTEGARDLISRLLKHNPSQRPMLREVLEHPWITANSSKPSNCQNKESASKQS

LOK = LOK (Homo sapiens, UniProt O94804)
Sequence of LOK (O94804 whole entry): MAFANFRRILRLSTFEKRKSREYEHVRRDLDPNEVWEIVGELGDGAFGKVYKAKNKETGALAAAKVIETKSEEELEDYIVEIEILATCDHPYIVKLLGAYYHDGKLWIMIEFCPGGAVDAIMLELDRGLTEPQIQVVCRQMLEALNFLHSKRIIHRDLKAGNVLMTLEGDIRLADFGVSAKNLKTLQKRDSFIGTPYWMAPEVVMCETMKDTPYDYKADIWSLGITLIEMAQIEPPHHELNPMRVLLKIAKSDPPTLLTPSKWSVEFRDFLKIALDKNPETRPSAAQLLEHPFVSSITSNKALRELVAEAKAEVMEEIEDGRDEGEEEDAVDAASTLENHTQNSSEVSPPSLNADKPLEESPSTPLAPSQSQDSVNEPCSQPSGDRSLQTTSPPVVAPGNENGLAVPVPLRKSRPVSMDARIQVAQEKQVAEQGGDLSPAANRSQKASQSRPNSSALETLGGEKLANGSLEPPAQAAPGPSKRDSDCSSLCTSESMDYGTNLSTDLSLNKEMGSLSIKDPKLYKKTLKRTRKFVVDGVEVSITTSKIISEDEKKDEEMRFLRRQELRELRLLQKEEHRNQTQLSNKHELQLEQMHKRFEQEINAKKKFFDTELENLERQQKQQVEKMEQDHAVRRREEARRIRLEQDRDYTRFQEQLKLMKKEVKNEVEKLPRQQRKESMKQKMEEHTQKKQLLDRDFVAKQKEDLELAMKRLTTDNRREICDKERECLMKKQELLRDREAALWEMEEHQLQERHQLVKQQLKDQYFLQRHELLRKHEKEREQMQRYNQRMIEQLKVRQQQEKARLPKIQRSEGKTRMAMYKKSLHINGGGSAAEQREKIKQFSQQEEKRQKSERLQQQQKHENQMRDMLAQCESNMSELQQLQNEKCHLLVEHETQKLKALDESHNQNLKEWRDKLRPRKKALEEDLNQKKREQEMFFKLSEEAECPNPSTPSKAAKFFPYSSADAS

NDR2 = NDR2 (Homo sapiens, UniProt Q9Y2H1)

Sequence of OSR1 (O95747 whole entry): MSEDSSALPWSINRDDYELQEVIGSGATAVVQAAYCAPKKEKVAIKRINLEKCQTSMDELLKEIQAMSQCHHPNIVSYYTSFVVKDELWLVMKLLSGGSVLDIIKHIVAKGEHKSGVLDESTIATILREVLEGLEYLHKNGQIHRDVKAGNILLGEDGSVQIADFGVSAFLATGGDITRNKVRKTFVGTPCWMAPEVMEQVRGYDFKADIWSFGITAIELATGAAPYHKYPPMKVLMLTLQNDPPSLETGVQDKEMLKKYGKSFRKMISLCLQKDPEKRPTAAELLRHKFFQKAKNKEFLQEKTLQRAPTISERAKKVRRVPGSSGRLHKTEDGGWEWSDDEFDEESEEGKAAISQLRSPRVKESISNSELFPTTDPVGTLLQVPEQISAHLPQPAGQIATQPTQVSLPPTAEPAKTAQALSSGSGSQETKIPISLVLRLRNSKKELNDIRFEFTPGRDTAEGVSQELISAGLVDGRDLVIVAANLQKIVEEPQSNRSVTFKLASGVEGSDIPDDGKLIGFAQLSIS
Sequence of CaMK1d (Q8IU85 whole entry): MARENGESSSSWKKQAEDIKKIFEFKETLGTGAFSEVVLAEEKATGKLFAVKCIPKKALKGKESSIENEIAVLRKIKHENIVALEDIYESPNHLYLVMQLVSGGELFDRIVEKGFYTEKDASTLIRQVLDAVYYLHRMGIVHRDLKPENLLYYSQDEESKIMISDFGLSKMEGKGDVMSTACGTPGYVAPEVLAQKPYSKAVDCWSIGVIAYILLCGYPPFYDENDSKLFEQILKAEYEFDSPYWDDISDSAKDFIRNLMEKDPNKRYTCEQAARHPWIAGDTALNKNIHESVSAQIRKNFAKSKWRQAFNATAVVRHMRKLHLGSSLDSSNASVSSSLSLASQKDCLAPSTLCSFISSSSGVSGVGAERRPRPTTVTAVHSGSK
Sequence of MST3 (Q9Y6E0 whole entry): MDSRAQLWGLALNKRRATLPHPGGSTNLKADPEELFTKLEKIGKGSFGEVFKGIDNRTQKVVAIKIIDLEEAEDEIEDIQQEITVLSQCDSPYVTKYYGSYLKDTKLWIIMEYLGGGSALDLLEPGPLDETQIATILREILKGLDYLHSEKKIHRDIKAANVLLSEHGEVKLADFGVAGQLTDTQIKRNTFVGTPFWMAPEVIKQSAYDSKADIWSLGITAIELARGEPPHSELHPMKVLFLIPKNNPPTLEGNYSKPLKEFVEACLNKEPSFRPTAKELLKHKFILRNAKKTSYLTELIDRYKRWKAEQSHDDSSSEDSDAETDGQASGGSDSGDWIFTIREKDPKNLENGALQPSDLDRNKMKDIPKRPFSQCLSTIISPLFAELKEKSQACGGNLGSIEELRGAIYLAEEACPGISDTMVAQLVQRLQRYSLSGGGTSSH

Cc1cccc(-c2ccc(-c3cc4cnc(NC(CO)CO)nc4n(CCCCN)c3=O)c(Cl)c2)n1 [compound 24, 8-(4-Aminobutyl)-6-(2-chloro-4-(6-methylpyridin-2-yl)phenyl)-2-((1,3-dihydroxypropan-2-yl)amino)pyrido[2,3-d]pyrimidin-7(8H)-one]
ΔTm MR24 (24) (MST3): 11.0 °C | ΔTm MR24 (24) (CaMK1d): 0.5 °C | ΔTm MR24 (24) (OSR1): -0.5 °C | ΔTm MR24 (24) (CaMK4): 1.2 °C | ΔTm MR24 (24) (EphA2): 0.6 °C | ΔTm MR24 (24) (CHK2): 2.0 °C | ΔTm MR24 (24) (ABL1): 1.4 °C | ΔTm MR24 (24) (BMX): 0.6 °C | ΔTm MR24 (24) (AurA): -1.7 °C | ΔTm MR24 (24) (LOK): -0.6 °C | ΔTm MR24 (24) (NDR2): 2.6 °C

Cc1cccc(-c2ccc(-c3cc4cnc(NCCCc5ccc(N)cc5)nc4n(CCCCN)c3=O)c(Cl)c2)n1 [compound 25, 8-(4-Aminobutyl)-2-((3-(4-aminophenyl)propyl)amino)-6-(2-chloro-4-(6-methylpyridin-2-yl)phenyl)pyrido[2,3-d]pyrimidin-7(8H)-one]
ΔTm 25 (MST3): 11.8 °C | ΔTm 25 (CaMK1d): 5.3 °C | ΔTm 25 (OSR1): 0.4 °C | ΔTm 25 (CaMK4): 5.4 °C | ΔTm 25 (EphA2): 3.3 °C | ΔTm 25 (CHK2): 8.5 °C | ΔTm 25 (ABL1): 3.9 °C | ΔTm 25 (BMX): 3.1 °C | ΔTm 25 (AurA): 1.8 °C | ΔTm 25 (LOK): -0.7 °C | ΔTm 25 (NDR2): 6.7 °C

CNc1ncc2cc(-c3ccc(-c4cccc(C)n4)cc3Cl)c(=O)n(CCC3CCNCC3)c2n1 [compound 22, 6-(2-Chloro-4-(6-methylpyridin-2-yl)phenyl)-2-(methylamino)-8-(2-(piperidin-4-yl)ethyl)pyrido[2,3-d]pyrimidin-7(8H)-one]
ΔTm 22 (MST3): 10.5 °C | ΔTm 22 (CaMK1d): 8.5 °C | ΔTm 22 (OSR1): 0.7 °C | ΔTm 22 (CaMK4): 4.8 °C | ΔTm 22 (EphA2): 2.3 °C | ΔTm 22 (CHK2): 3.0 °C | ΔTm 22 (ABL1): 4.9 °C | ΔTm 22 (BMX): 4.1 °C | ΔTm 22 (AurA): 11.4 °C | ΔTm 22 (LOK): 11.4 °C | ΔTm 22 (NDR2): 5.1 °C

CNc1ncc2cc(-c3ccc(-c4cccc(C)n4)cc3Cl)c(=O)n(CCCCN)c2n1 [compound 20, MRLW5]
ΔTm MRLW5 (20) (MST3): 11.7 °C | ΔTm MRLW5 (20) (CaMK1d): 7.2 °C | ΔTm MRLW5 (20) (OSR1): 1.6 °C | ΔTm MRLW5 (20) (CaMK4): 2.9 °C | ΔTm MRLW5 (20) (EphA2): 3.5 °C | ΔTm MRLW5 (20) (CHK2): 2.8 °C | ΔTm MRLW5 (20) (ABL1): 4.9 °C | ΔTm MRLW5 (20) (BMX): 3.1 °C | ΔTm MRLW5 (20) (AurA): 11.8 °C | ΔTm MRLW5 (20) (LOK): 12.5 °C | ΔTm MRLW5 (20) (NDR2): 4.6 °C

Cc1cccc(-c2ccc(-c3cc4cnc(NCCCN5CCOCC5)nc4n(CCCCN)c3=O)c(Cl)c2)n1 [compound 26, MR26]
ΔTm MR26 (26) (MST3): 12.4 °C | ΔTm MR26 (26) (CaMK1d): 4.1 °C | ΔTm MR26 (26) (OSR1): -0.1 °C | ΔTm MR26 (26) (CaMK4): 2.2 °C | ΔTm MR26 (26) (EphA2): 4.2 °C | ΔTm MR26 (26) (CHK2): 3.3 °C | ΔTm MR26 (26) (ABL1): 2.9 °C | ΔTm MR26 (26) (BMX): 2.4 °C | ΔTm MR26 (26) (AurA): -0.9 °C | ΔTm MR26 (26) (LOK): -0.4 °C | ΔTm MR26 (26) (NDR2): 5.2 °C

CNc1ncc2cc(-c3ccc(-c4cccc(C)n4)cc3Cl)c(=O)n(C[C@H]3CC[C@H](N)CC3)c2n1 [compound 23, 23]
ΔTm 23 (MST3): 10.8 °C | ΔTm 23 (CaMK1d): 9.5 °C | ΔTm 23 (OSR1): 2.3 °C | ΔTm 23 (CaMK4): 6.9 °C | ΔTm 23 (EphA2): 3.2 °C | ΔTm 23 (CHK2): 4.6 °C | ΔTm 23 (ABL1): 7.9 °C | ΔTm 23 (BMX): 3.4 °C | ΔTm 23 (AurA): 13.1 °C | ΔTm 23 (LOK): 13.0 °C | ΔTm 23 (NDR2): 3.5 °C
